Here are results for 30 molecules from US12162888B2, “Carboxamides as ubiquitin-specific protease inhibitors” (Valo Early Discovery, Inc., priority 2018, dated 2024).

The first assay has as its target T1, USP28 (His-tagged USP28-FL-mammalian) (Homo sapiens, UniProt Q96RU2).
T1 construct: Expression of USP28 (1-1077)-TEV-6*His (pTT5 vector) was carried out in Expi293f cells; made in house; host or cells: Expi293F cells (pTT5 vector)
T1 sequence (Q96RU2 1-1077): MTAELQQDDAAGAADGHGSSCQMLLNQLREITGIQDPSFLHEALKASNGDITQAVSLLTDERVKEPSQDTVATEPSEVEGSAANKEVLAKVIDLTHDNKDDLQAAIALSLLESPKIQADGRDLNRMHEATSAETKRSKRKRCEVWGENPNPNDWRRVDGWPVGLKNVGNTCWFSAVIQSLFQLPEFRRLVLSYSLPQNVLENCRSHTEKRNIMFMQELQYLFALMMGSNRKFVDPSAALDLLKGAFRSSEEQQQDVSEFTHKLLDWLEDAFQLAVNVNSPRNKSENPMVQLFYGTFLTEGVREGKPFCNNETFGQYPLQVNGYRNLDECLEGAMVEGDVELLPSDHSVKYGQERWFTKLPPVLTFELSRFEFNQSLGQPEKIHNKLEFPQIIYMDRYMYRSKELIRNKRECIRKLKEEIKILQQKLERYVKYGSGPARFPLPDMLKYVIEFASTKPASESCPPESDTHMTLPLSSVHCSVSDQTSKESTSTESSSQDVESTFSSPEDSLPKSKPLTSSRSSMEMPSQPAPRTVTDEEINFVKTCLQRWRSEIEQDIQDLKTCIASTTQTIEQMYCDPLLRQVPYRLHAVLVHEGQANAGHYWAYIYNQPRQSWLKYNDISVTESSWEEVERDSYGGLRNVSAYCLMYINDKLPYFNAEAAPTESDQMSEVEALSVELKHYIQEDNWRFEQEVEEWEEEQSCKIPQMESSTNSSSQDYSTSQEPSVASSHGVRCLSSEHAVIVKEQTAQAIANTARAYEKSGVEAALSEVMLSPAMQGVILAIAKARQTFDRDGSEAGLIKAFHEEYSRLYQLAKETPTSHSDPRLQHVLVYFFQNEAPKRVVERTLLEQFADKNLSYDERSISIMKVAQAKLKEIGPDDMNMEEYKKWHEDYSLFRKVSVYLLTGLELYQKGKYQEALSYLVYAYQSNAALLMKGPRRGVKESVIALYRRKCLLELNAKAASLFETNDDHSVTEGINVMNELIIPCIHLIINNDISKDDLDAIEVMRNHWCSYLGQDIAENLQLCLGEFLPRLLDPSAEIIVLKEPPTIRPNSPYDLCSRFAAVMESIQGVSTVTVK
In words: Ubiquitin-Rhodamine 110 Assay for USP28 Activity, Example A-1(a). The assay is classed as biochemical. To be noted: Ubiquitin-Rhodamine 110 assay, read-out: USP28 A-1(a) IC50 range. In a few lines: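 Full-length His-tagged human USP28 (1-1077), expressed in Expi293F cells, was used at […] with 25 nM Ub-Rh110 (<<Km) in 20 mM Tris pH 8.0, 3 mM BME, 0.03% BGG and 0.01% Triton X-100. Compounds (25 μM-1.3 nM, 10-point) were preincubated with enzyme for 30 min, and the reaction ran 45 min at room temperature before a citric acid stop. Fluorescence was read at 485/535 nm, and IC50 came from 4-parameter fits of percent inhibition.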
Take `Cc1ccc2c(N)c(C(=O)N[C@H]3CCc4nc(N5C[C@@H](N)[C@]6(CCOC6)C5)ccc4C3)sc2n1` [Example 438, 3-amino-N-[(6S)-2-[(5S, 9S)-9-amino-2-oxa-7-azaspiro[4.4]nonan-7-yl]-5,6,7,8-tetrahydroquinolin-6-yl]-6-methylthieno[2,3-b]pyridine-2-carboxamide]: the IC50 was in the range of 50 to 200 nM.

As for `COC[C@@]1(C)CN(c2ccc3c(n2)CC[C@H](NC(=O)c2sc4nc(C)ccc4c2N)C3)C[C@H]1N` [Example 343, 3-amino-N-[(6S)-2-[(3S,4S)-4-amino-3-(methoxymethyl)-3-methylpyrrolidin-1-yl]-5,6,7,8-tetrahydroquinolin-6-yl]-6-methylthieno[2,3-b]pyridine-2-carboxamide], the IC50 lay in the range of 50 to 200 nM.

Regarding `Cc1cnc2c(N)c(C(=O)N[C@@H]3CCc4cc(N5CCNCC5)cc(F)c4C3)sc2n1` (single isomer, unassigned) [Example 11-37], the IC50 was 200 to 2000 nM.

Turning to `Cc1ccc2c(N)c(C(=O)N[C@H]3COc4cc(N5CCNCC5)ccc4[C@@H]3C)sc2n1` (single isomer, unassigned) [Example 11-16], the IC50 was over 2000 nM.

As to `Cc1ccc2c(N)c(C(=O)N[C@@H]3CCc4nc(N5C[C@H](CF)[C@H](N)C5)ncc4C3)sc2n1` [Example 446, 3-amino-N-[(6R)-2-[(3S,4S)-3-amino-4-(fluoromethyl)pyrrolidin-1-yl]-5,6,7,8-tetrahydroquinazolin-6-yl]-6-methylthieno[2,3-b]pyridine-2-carboxamide], the IC50 was in the range of 200 to 2000 nM.

With `CCn1ccc2cc(C(=O)N[C@H]3CCc4nc(N5C[C@H](COC)[C@H](N)C5)ccc4C3)cnc21` (single isomer, unassigned) [Example 401], the IC50 was 200 to 2000 nM.

On to `Cc1ccc2c(N)c(C(=O)N[C@H]3COc4cc(N5C[C@H](CF)[C@H](N)C5)ccc4C3)sc2n1` (single isomer, unassigned) [Example 424], for which the IC50 lay in the range of 1 to 50 nM.

For `Cc1cnc2c(N)c(C(=O)N[C@H]3CCc4cc(N5C[C@H]6C[C@@H]5CN6)ccc4C3)sc2n1` (single isomer, unassigned) [Example 11-31], the IC50 was in the range of 50 to 200 nM.

As to `Cc1nc2sc(C(=O)N[C@H]3CCc4c(C#N)c(N5CC6CCC(C5)N6)cc(F)c4C3)c(N)c2s1` (single isomer, unassigned) [Example 14-21], the IC50 is 1 to 50 nM.

As for `[2H]C1([2H])c2c(F)cc(N3CCNCC3)cc2OC[C@@H]1NC(=O)c1sc2nc(C)ccc2c1N` (single isomer, unassigned) [Example 33-1], the IC50 was 1 to 50 nM.

With `Cc1cnc2c(N)c(C(=O)N[C@@H]3CCc4cc(N5CCNCC5)ccc4C3)sc2n1` (single isomer, unassigned) [Example 11-20], the IC50 lay within 200 to 2000 nM.

Take `Cc1ccc2c(N)c(C(=O)N[C@H]3CCc4nc(N5C[C@H](N)[C@@]6(CCOC6)C5)ccc4C3)sc2n1` [Example 437, 3-amino-N-[(6S)-2-[(5R,9R)-9-amino-2-oxa-7-azaspiro[4.4]nonan-7-yl]-5,6,7,8-tetrahydroquinolin-6-yl]-6-methylthieno[2,3-b]pyridine-2-carboxamide]: the IC50 lay in the range of 50 to 200 nM.

`Cc1cnc2c(N)c(C(=O)N[C@H]3CCc4c(C#N)c(N5CC6CCC(C5)N6)cc(F)c4C3)sc2n1` (single isomer, unassigned) [Example 14-19]: the IC50 fell in the range of 1 to 50 nM.

Regarding `CCn1ccc2cc(C(=O)N[C@H]3CCc4nc(N5C[C@@H](COC)[C@@H](N)C5)ccc4C3)cnc21` (single isomer, unassigned) [Example 400], the IC50 lay in the range of 200 to 2000 nM.

Consider `Cc1cnc2c(N)c(C(=O)N[C@@H]3CCc4c(ccc(N5CCNCC5)c4F)C3)sc2n1` (single isomer, unassigned) [Example 21-9], for which the IC50 was 50 to 200 nM.

As to `CO[C@H]1CN(c2cc(F)c3c(c2C#N)CC[C@H](NC(=O)c2sc4nc(C)ccc4c2N)C3)C[C@@H]1N` (single isomer, unassigned) [Example 14-23], the IC50 is 1 to 50 nM.

For the molecule `Cc1nc2sc(C(=O)N[C@H]3CCc4c(C#N)c(N5CCNCC5)cc(F)c4C3)c(N)c2s1` (single isomer, unassigned) [Example 14-14], the IC50 lay within 1 to 50 nM.

For the molecule `Cc1ccc2c(N)c(C(=O)N[C@H]3CCc4c(C#N)c(N5CC6CCC(C5)N6)cc(F)c4C3)sc2n1` (single isomer, unassigned) [Example 14-17], the IC50 lay in the range of 1 to 50 nM.

For `Cc1ccc2c(N)c(C(=O)N[C@@H]3CCc4cc(N5CCNCC5)ccc4C3)sc2n1` (single isomer, unassigned) [Example 11-22], the IC50 lay within 50 to 200 nM.

`Cc1cnc2c(N)c(C(=O)N[C@H]3CCc4cc(N5CCNCC5)c(F)cc4C3)sc2n1` (single isomer, unassigned) [Example 21-12]: the IC50 fell in the range of 1 to 50 nM.

As to `Cc1cnc2c(N)c(C(=O)N[C@@H]3CCc4cc(N5CCNCC5)c(F)cc4C3)sc2n1` (single isomer, unassigned) [Example 21-11], the IC50 was 200 to 2000 nM.

Consider `Cc1ccc2c(N)c(C(=O)N[C@H]3CCc4c(C#N)c(N5CCNCC5)cc(F)c4C3)sc2n1` (single isomer, unassigned) [Example 14-10], for which the IC50 is 1 to 50 nM.

Still in this assay, the particulars now being: biochemical IC50 range, Ubiquitin-Rhodamine 110 assay, read-out: USP28 A-1(a).
As to `Cc1ccc2c(N)c(C(=O)N[C@H]3CCc4c(F)c(N5CC6CCC(C5)N6)cc(F)c4C3)sc2n1` (single isomer, unassigned) [Example 603], the IC50 is 1 to 50 nM.

`O=C(N[C@H]1COc2cc(N3CCNCC3)ccc2C1)c1ccc(NCc2cccc3cn[nH]c23)nc1` [Example 698, 6-{[(1H-indazol-7-yl)methyl]amino}-N-[(3R)-7-(piperazin-1-yl)-3,4-dihydro-2H-1-benzopyran-3-yl]pyridine-3-carboxamide]: the IC50 is 200 to 2000 nM.

For the molecule `Cc1ccc2c(N)c(C(=O)N[C@H]3COc4cc(N5C[C@H](N)[C@](C)(CF)C5)ccc4C3)sc2n1` [Example 658, 3-amino-N-[(3R)-7-[(3R,4R)-4-amino-3-(fluoromethyl)-3-methylpyrrolidin-1-yl]-3,4-dihydro-2H-1-benzopyran-3-yl]-6-methylthieno[2,3-b]pyridine-2-carboxamide], the IC50 lay within 1 to 50 nM.

With `COC1CN(c2ccc3c(c2)CC[C@H](NC(=O)c2sc4nc(C)cnc4c2N)C3)CC1N` (stereo in doubt) [Example 130, 7-amino-N-[(2S)-6-[(3S,4S)-3-amino-4-methoxypyrrolidin-1-yl]-1,2,3,4-tetrahydronaphthalen-2-yl]-3-methylthieno[2,3-b]pyrazine-6-carboxamide], the IC50 is 50 to 200 nM.

For `Cc1ccc2c(N)c(C(=O)N[C@H]3COc4cc(N5C[C@H](N)[C@]6(CCOC6)C5)ccc4C3)sc2n1` [Example 656, 3-amino-N-[(3R)-7-[(5S,9R)-9-amino-2-oxa-7-azaspiro[4.4]nonan-7-yl]-3,4-dihydro-2H-1-benzopyran-3-yl]-6-methylthieno[2,3-b]pyridine-2-carboxamide], the IC50 lay in the range of 1 to 50 nM.

With `O=C(N[C@H]1COc2cc(N3CCNCC3)ccc2C1)c1ccc(NCc2cccc(Cl)c2Cl)nc1` [Example 699, 6-{[(2,3-dichlorophenyl)methyl]amino}-N-[(3R)-7-(piperazin-1-yl)-3,4-dihydro-2H-1-benzopyran-3-yl]pyridine-3-carboxamide], the IC50 was 1 to 50 nM.

For `CN[C@H]1CN(c2ccc3c(c2)OC[C@H](NC(=O)c2sc4nc(C)ccc4c2N)C3)C[C@@H]1CF` [Example 662, 3-amino-N-[(3R)-7-[(3S,4R)-3-(fluoromethyl)-4-(methylamino)pyrrolidin-1-yl]-3,4-dihydro-2H-1-benzopyran-3-yl]-6-methylthieno[2,3-b]pyridine-2-carboxamide], the IC50 lay in the range of 1 to 50 nM.

For the molecule `CO[C@@H]1CN(c2ccc3c(c2)OC[C@H](NC(=O)c2sc4nc(C)cnc4c2N)C3)C[C@@H]1N` [Example 147, 7-amino-N-[(3R)-7-[(3S,4R)-3-amino-4-methoxypyrrolidin-1-yl]-3,4-dihydro-2H-1-benzopyran-3-yl]-3-methylthieno[2,3-b]pyrazine-6-carboxamide], the IC50 was in the range of 50 to 200 nM.
